In patent US8273737B2, “Quinolizidinone M1 receptor positive allosteric modulators” (Merck Sharp & Dohme Corp., priority 2008, dated 2012):

Target: T1, acetylcholine muscarinic M1 receptor (Homo sapiens, UniProt P11229)
T1 construct: expressed in transfected cells; host or cells: CHOnfat (CHO cells, Geneticin-selected)
T1 sequence (P11229 1-460): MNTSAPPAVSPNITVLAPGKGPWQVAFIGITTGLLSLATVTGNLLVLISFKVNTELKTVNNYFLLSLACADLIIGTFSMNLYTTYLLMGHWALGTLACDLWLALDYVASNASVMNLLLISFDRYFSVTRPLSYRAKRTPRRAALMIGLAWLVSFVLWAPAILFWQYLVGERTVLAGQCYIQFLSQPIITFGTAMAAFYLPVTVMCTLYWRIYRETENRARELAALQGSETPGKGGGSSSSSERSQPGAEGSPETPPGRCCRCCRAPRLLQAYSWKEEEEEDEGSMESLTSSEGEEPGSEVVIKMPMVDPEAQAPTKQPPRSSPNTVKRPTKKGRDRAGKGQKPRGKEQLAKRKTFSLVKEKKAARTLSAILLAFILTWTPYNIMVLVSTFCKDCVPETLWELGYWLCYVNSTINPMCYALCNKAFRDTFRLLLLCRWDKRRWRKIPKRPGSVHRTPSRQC
Assay: muscarinic FLIPR assay: potentiation of acetylcholine-stimulated intracellular Ca2+ in CHOnfat/hM1 cells
Type: cell-based
Conditions: 4 min preincubation, then EC20 acetylcholine (3 nM final), read-out: IP Value (inflection point)
Procedure: The assay studies the effect of one or several concentrations of test compounds on basal or acetylcholine-stimulated Ca^2+ levels using FLIPR.
Compounds are prepared and subjected to a preincubation period of 4 min. Thereafter, a single EC20 concentration of acetylcholine is added to each well (3 nM final). The intracellular Ca^2+ level of each sample is measured and compared to an acetylcholine control to determine any modulatory activity.
Cells: CHOnfat/hM1, hM2, hM3 or hM4 cells are plated 24 hr before the assay at a density of 18,000 cells/well (100 μL) in a 384 well plate. CHOnfat/hM1 and CHOnfat/hM3 Growth Medium: 90% DMEM (Hi Glucose); 10% HI FBS; 2 mM L-glutamine; 0.1 mM NEAA; Pen-Strep; and 1 mg/ml Geneticin, are added. For M2Gqi5CHOnfat and M4Gqi5CHOnfat cells, an additional 600 μg/ml hygromycin is added.
Equipment: 384 well plate, 120 μL addition plate; 96-well Whatman 2 ml Uniplate Incubator, 37° C., 5% CO2; Skatron EMBLA-384 Plate Washer; Multimek Pipetting System; Genesis Freedom 200 System; Mosquito System; Temo Nanolitre Pipetting System; and FLIPR^384 Fluorometric Imaging Plate Reader System are used.
Buffers. Assay Buffer: Hanks Balanced Salt Solution, with 20 mM Hepes, 2.5 mM Probenecid (Sigma P-8761) first dissolved in 1N aqueous NaOH, 1% Bovine Serum Albumin (Sigma A-9647). Dye Loading Buffer: Assay Buffer plus 1% Fetal Bovine Serum and Fluo-4AM/Pluronic Acid Mixture. 2 mM Fluo-4AM ester stock in DMSO (Molecular Probes F-14202) Concentration of 2 μM in buffer for a final concentration of 1 μM in Assay. 20% Pluronic Acid Solution stock, with a concentration of 0.04% in Buffer, 0.02% in Assay.
65 μL of 2 mM Fluo-4AM are mixed with 130 μL of 20% Pluronic Acid. The resulting solution and 650 μL FBS is added to the assay buffer for a total volume of 65 mL. Positive Controls: 4-Br-A23187: 10 mM in DMSO; final concentration 10 μM. Acetylcholine: 10 mM in water, working stock at both 20 μM and 30 μM in assay buffer, final concentration of 10 μM. This is used to check the maximum stimulation of the CHOK1/hM1 cells. 20 μM (2×) acetylcholine is added in the preincubation part of the assay, and the 30 μM (3×) stock is added in the second part. (EC20)Acetylcholine: 10 mM in water, working stock of 9 nM (3×), and final concentration in assay is 3 nM. This is used after the preincubation with test compounds. Addition of the EC20 Acetylcholine to each well with a test compound will ascertain any modulator activity. 24 wells contain 3 nM Acetylcholine alone as a control.
Determining Activity of Putative Compounds:
Screening Plate Compounds are titrated in 96-well plates (columns 2-11), 100% DMSO, started at a concentration of 15 mM (150× stock concentration), and 3-fold serial dilutions using Genesis Freedom200 System. Four 96-well plates are combined into a 384-well plate using Mosquito Nanolitre Pipetting System by transferring 1 μl of serial diluted compounds to each well, and 1 mM acetylcholine (100× stock concentration) were added as a control. Using Temo, 49 μl assay buffer is added to each well of the 384-well plate right before assay.
In a 96-well Whatman 2 ml Uniplate, 9 nM Acetylcholine (3×) is pipetted into wells corresponding to the screening compounds and into control wells. The 30 μM acetylcholine control (3×) is added into control wells and the 3× agonist plate is transferred into a 384-well plate.
Cells are washed three times with 100 μL of buffer, leaving 30 μL of buffer in each well. Using Multimek, 30 μL of Dye Loading Buffer is added into each well and incubated at 37° C., 5% CO2 for up to one hr.
After 60 min, the cells are washed three times with 100 μL of buffer, leaving 30 μL of buffer in each well. The cell plate, screening plate, and agonist addition plates are placed on the platform in the FLIPR and the door is closed. A signal test to check background fluorescence and basal fluorescence signal is performed. Laser intensity is adjusted if necessary. […]

Compared with `O=C(O)c1cc(CN2CCN(c3ccc(C(F)(F)F)cc3)CC2)c2ccccn2c1=O` [Example 1, 4-oxo-1-({4-[4-(trifluoromethyl)phenyl]piperazin-1-yl}methyl)-4H-quinolizine-3-carboxylic acid], `O=C(O)c1cc(CN2CCN(c3ccc(Br)cc3)CC2)c2ccccn2c1=O` [Example 61] is 2-fold lower in EC50: 270 nM for the first, 132 nM for the second.

Going from `Cn1cc(N2CCN(Cc3cc(C(=O)O)c(=O)n4ccccc34)CC2)cn1` [Example 113] to `N#Cc1ccc(N2CCN(Cc3cc(C(=O)O)c(=O)n4ccccc34)CC2)cn1` [Example 147, 1-{[4-(6-cyanopyridin-3-yl)piperazin-1-yl]methyl}-4-oxo-4H-quinolizine-3-carboxylic acid], the EC50 rises from 408 nM to 614 nM (1.5-fold).

`O=C(O)c1cc(CN2CCN(c3cc4ccccc4cn3)CC2)c2ccccn2c1=O` [Example 133] and `O=C(O)c1cc(CN2CCN(c3ccc4sccc4c3)CC2)c2ccccn2c1=O` [Example 143] are within 1.5-fold of each other in EC50: 90 nM for the first, 71 nM for the second.

Going from `O=C(O)c1cc(CN2CCN(c3ccc4ncsc4c3)CC2)c2ccccn2c1=O` [Example 144] to `N#Cc1ccc(N2CCN(Cc3cc(C(=O)O)c(=O)n4ccccc34)CC2)cc1` [Example 146, 1-{[4-(4-cyanophenyl)piperazin-1-yl]methyl}-4-oxo-4H-quinolizine-3-carboxylic acid], the EC50 rises from 81 nM to 616 nM (7.6-fold). The first is the more potent here.

Going from `N#Cc1cc2cc(N3CCN(Cc4cc(C(=O)O)c(=O)n5ccccc45)CC3)ccc2o1` [Example 145, 1-{[4-(2-cyano-1-benzofuran-5-yl)piperazin-1-yl]methyl}-4-oxo-4H-quinolizine-3-carboxylic acid] to `C=Cc1cc(N2CCN(Cc3cc(C(=O)O)c(=O)n4ccccc34)CC2)ccn1` [Example 148, 4-Oxo-1-{[4-(2-vinylpyridin-4-yl)piperazine-1-yl]methyl}-4H-quinolizine-3-carboxylic acid], the EC50 rises from 91 nM to 380 nM (4.2-fold). The first is the more potent here.

First: CSc1cc(N2CCN(Cc3cc(C(=O)O)c(=O)n4ccccc34)CC2)ccn1 [Example 153, 1-({4-[2-(methylthio)pyridine-4-yl]piperazine-1-yl}methyl)-4-oxo-4H-quinolizine-3-carboxylic acid]
Second: CS(=O)(=O)c1cc(N2CCN(Cc3cc(C(=O)O)c(=O)n4ccccc34)CC2)ccn1 [Example 154]
The EC50 of the first is 2.6-fold lower: 640 nM for the first, 1650 nM for the second.

First: CN1CCN(Cc2cc(C(=O)O)c(=O)n3ccccc23)C(c2cccc(F)c2)C1=O (stereo not drawn) [Example 155, 1-{[2-(3-fluorophenyl)-4-methyl-3-oxopiperazin-1-yl]methyl}-4-oxo-4H-quinolizine-3-carboxylic acid]
Second: O=C(O)c1cc(CN2CCN(c3ccccc3)C(=O)C2c2cccc(F)c2)c2ccccn2c1=O (stereo not drawn) [Example 160, 1-{[2-(3-fluorophenyl)-3-oxo-4-phenylpiperazin-1-yl]methyl}-4-oxo-4H-quinolizine-3-carboxylic acid]
The EC50 of the first is 41-fold higher: 4900 nM for the first, 119 nM for the second. The second is the more potent here.

In the case of `O=C(O)c1cc(CN2CCOCC2)c2ccccn2c1=O` [Example 179, 1-(morpholin-4-ylmethyl)-4-oxo-4H-quinolizine-3-carboxylic acid], the EC50 is reported as 6900 nM.
